B1: recombinant tTGase: exogenous recombinant tissue transglutaminase used in the study of Haroon et al 1999 (protein, UniProt P21980 2-687, looked up)
Protein-glutamine …: AEELVLERCDLELETNGRDHHTADLCREKLVVRRGQPFWLTLHFEGRNYEASVDSLTFSVVTGPAPSQEAGTKARFPLRDAVEEGDWTATVVDQQDCTLSLQLTTPANAPIGLYRLSLEASTGYQGSSFVLGHFILLFNAWCPADAVYLDSEEERQEYVLTQQGFIYQGSAKFIKNIPWNFGQFEDGILDICLILLDVNPKFLKNAGRDCSRRSSPVYVGRVVSGMVNCNDDQGVLLGRWDNNYGDGVSPMSWIGSVDILRRWKNHGCQRVKYGQCWVFAAVACTVLRCLGIPTRVVTNYNSAHDQNSNLLIEYFRNEFGEIQGDKSEMIWNFHCWVESWMTRPDLQPGYEGWQALDPTPQEKSEGTYCCGPVPVRAIKEGDLSTKYDAPFVFAEVNADVVDWIQQDDGSVHKSINRSLIVGLKISTKSVGRDEREDITHTYKYPEGSSEEREAFTRANHLNKLAEKEETGMAMRIRVGQSMNMGSDFDVFAHITNNTAEEYVCRLLLCARTVSYNGILGPECGTKYLLNLNLEPFSEKSVPLCILYEKYRDCLTESNLIKVRALLVEPVINSYLLAERDLYLENPEIKIRILGEPKQKRKLVAEVSLQNPLPVALEGCTFTVEGAGLTEEQKTVEIPDPVEAGEEVKVRMDLLPLHMGLHKLVVNFESDKLKAVKGFRNVIIGPA

What was measured:
ECV304 cells = test: in vitro angiogenesis/tubulogenesis model, ECV304 cells co-cultured with C378 fibroblasts; format: cell-based, human
Excerpt: An in vitro system of angiogenesis/tubulogenesis was developed to evaluate the efficacy of TGase administration on angiogenesis. […] In the model cell system described below, ECV304 cells were co-cultured with the primary human dermal fibroblast cell line C378 (isolated from human foreskin), which provides the appropriate biochemical information to stimulate the differentiation of ECV304 to form capillary-like structures.
ECV304 cell lines S3 (a neomycin resistant transfected control cell line phenotypically similar to wild type cells) and B4 (a tTGase antisense transfected cell line [Jones, R. A., et al., 1997, J. Cell Sci. 110, 2461-2472]) and C378 were routinely cultured in Dulbecco's Modified Eagles Media (DMEM) supplemented with 2 mM glutamine and 10% (v/v) foetal calf serum (FCS). Cells were harvested by exposure to 0.25% (w/v) bovine trypsin in phosphate buffered saline (PBS) pH 7.4, and collected cells were washed in normal culture media, counted and seeded into the appropriate tissue culture vessel. Standard angiogenesis experiments were performed in 12-well cell culture plates, and 2×10^4 ECV304 cells and 2×10^4 C378 cells were seeded into 1 ml of normal growth media. For immunochemical staining experiment, 2×10^3 cells of each cell type were seeded into […] of growth medium in 8-well glass chamber slides. Co-cultures were incubated at 37° C. in a humidified atmosphere containing 5% (V/V) CO2, and tubules were allowed to develop spontaneously over a 14-day period, with regular changes of growth media every 72 hours.
For cultures treated with purified tTGase, a dose response with 1, 10 and 50 μg […] liver transglutaminase (gplTGase) was performed with two separate dosing regimes. gplTGase was activated by pre-incubation with 10 mM DTT on ice for one hour prior to its addition to cultures. The highest amount of DTT present in the cultures was 0.5 mm for the 50 μg gplTGase treatment, and control cultures were treated with DTT accordingly. In some experiments, cultures were treated with two administrations of exogenous enzyme on day 1 and day 4 of the experiment. Further studies extended the dose regime to include five gplTGase treatments, on days 1, 4, 7, 10 and 13.
Non-specific protein binding was blocked by incubating fixed cells with 300 μl of 3% (w/v) bovine serum albumin (BSA) overnight at 4° C. Blocked plates were then incubated with the primary antisera (see table 5), diluted in the above buffer, for 2 hours at 37° C. with gentle shaking. Next, plates were washed three times and incubated with the appropriate species-specific secondary antibody (see table 5) conjugated to Horseradish peroxidase (HRP) for 2 hours at 37° C. with gentle shaking. […]

rat dermal wound = conditions: addition of exogenous enzyme, rat dermal wound healing; cited from earlier work

Row | Molecule | microtubule formation (collagen type I, UEA-1 and tTGase staining) (ECV304 cells; 10 μM, compared to untreated cells) | microtubule formation (ECV304 cells; 100 μM) | microtubule formation (ECV304 cells; 200 μM) | angiogenesis (FIG. 4, tubules stained for collagen type I, UEA-1, tTGase) (ECV304 cells; standard angiogenesis inhibitor, positive control) | vessel length density (rat dermal wound)
1 | Cc1ccc(C(=O)Nc2ccc(S(=O)(=O)O)c3cc(S(=O)(=O)O)cc(S(=O)(=O)O)c23)cc1NC(=O)c1cccc(NC(=O)Nc2cccc(C(=O)Nc3cc(C(=O)Nc4ccc(S(=O)(=O)O)c5cc(S(=O)(=O)O)cc(S(=O)(=O)O)c45)ccc3C)c2)c1 [suramin] | significantly reduced | completely eradicated | completely eradicated | inhibition of angiogenesis | –
2 | B1 | – | – | – | – | increase in vessel length density
